Results taken from patent US11034658B2, “Pyridinyl pyrazoles as modulators of RORγT” (Janssen Pharmaceutica NV, priority 2018, dated 2021).

Key:
[1] = molecular target: full-length human RORγt (GAL4-DBD-RORγt fusion) in HEK293T cells (Homo sapiens (Human), UniProt P51449); experiment: RORγt (full-length human) reporter assay, conditions A or B; type: cell-based; conditions: for IC50: HEK293T cells, read-out: RORγt (FL) Reporter Assay A or B, IC50; for inhibition at 3 µM: 3 μM compound concentration (footnote *)
Procedure: RORγt (Full-Length Human) Reporter Assay:
(§1) HEK293T cells were plated at 35,000 per well in 96-well plate in medium of DMEM with 10% FBS. […] After overnight (16 to 20 hours) incubation, media were removed and cells were lysed with 50 μL Glo Lysis Buffer (Promega) for 10-15 minutes followed by 10 minute incubation with 50 μL Dual Glo reagent (Promega) at room temperature. Firefly luciferase luminescence was measured using a BMG Pherastar plate reader. To each well, 50 μL Stop and Glo reagent was added and incubated for 10 minutes at room temperature. Renilla luminescence was measured using a BMG Pherastar plate reader. To calculate the effect of compounds on RORγt activity, firefly values were normalized against values of DMSO only and values of reference compound at saturating concentration, then further normalized against Renilla signals. IC50s were generated by plotting final Renilla normalized data against compound concentration and percent inhibition was calculated against DMSO control.
as §1, with “at 8750 cells” for “at 35,000”, “in 384-well” for “in 96-well”, “with 20” for “with 50”, “well, 20” for “well, 50”

[2] = molecular target: human RORγt ligand binding domain (RORγt LBD) (Homo sapiens (Human), UniProt P51449); experiment: RORγt ThermoFluor assay
From the text: ThermoFluor® is a fluorescence based assay that estimates ligand binding affinities by measuring the effect of a ligand on protein thermal stability (Pantoliano, M. W., Petrella, E. C., Kwasnoski, J. D., Lobanov, V. S., Myslik, J., Graf, E., Carver, T., Asel, E., Springer, B. A., Lane, P., and Salemme, F. R. (2001) High-density miniaturized thermal shift assays as a general strategy for drug discovery. J Biomol Screen 6, 429-40, and Matulis, D., Kranz, J. K., Salemme, F. R., and Todd, M. J. (2005) Thermodynamic stability of carbonic anhydrase: measurements of binding affinity and stoichiometry using ThermoFluor. Biochemistry 44, 5258-66). This approach is applicable to a wide variety of systems, and rigorous in theoretical interpretation through quantitation of equilibrium binding constants (KD).
The shift in the melting point described as a ΔTm is proportional to the concentration and affinity of the ligand. The compound potency may be compared as a rank order of either values at a single compound concentration or in terms of KD values, estimated from concentration response curves.
RORγt ThermoFluor® Assay Construct
For the RORγt construct used in the ThermoFluor® assay, numbering for the nucleotide sequences was based on the reference sequence for human RORγt, transcript variant 2, NCBI Accession: NM 001001523.1 (SEQ ID NO:1). Nucleotides 850-1635 (SEQ ID NO:2) coding for the wild type human RORγt ligand binding domain (RORγt LBD) were cloned into the pHIS1 vector, a modified pET E. coli expression vector (Accelagen, San Diego), containing an in-frame N-terminal His-tag and a TurboTEV protease cleavage site (ENLYFQG, SEQ ID NO:3) upstream of the cloned insert sequence. The amino acid sequence for the RORγt construct used in the Thermofluor® assay is shown as SEQ ID NO:4.
ThermoFluor® experiments were carried out using instruments owned by Janssen Research and Development, L.L.C. through its acquisition of 3-Dimensional Pharmaceuticals, Inc. 1,8-ANS (Invitrogen) was used as a fluorescent dye. Protein and compound solutions are dispensed into black 384-well polypropylene PCR microplates (Abgene) and overlayed with silicone oil (1 μL, Fluka, type DC 200) to prevent evaporation.
Bar-coded assay plates are robotically loaded onto a thermostatically controlled PCR-type thermal block and then heated at a typical ramp-rate of 1° C./min for all experiments. Fluorescence was measured by continuous illumination with UV light (Hamamatsu LC6) supplied via fiber optic and filtered through a band-pass filter (380-400 nm; >6 OD cutoff). Fluorescence emission of the entire 384-well plate was detected by measuring light intensity using a CCD camera (Sensys, Roper Scientific) filtered to detect 500±25 nm, resulting in simultaneous and independent readings of all 384 wells. Images were collected at each temperature, and the sum of the pixel intensity in a given area of the assay plate was recorded versus temperature. Reference wells contained RORγt without compounds, and the assay conditions were as follows:
Project compounds were arranged in a pre-dosed mother plate (Greiner Bio-one) wherein compounds are serially diluted in 100% DMSO by 1:2 from a high concentration of 10 mM over 12 columns within a series (column 12 is a reference well containing DMSO, no compound). The compounds were robotically dispensed directly into assay plates (1×=46 nL) using a Hummingbird capillary liquid handling instrument (Digilab). Following compound dispense, protein and dye in buffer was added to achieve the final assay volume of 3 μL, followed by 1 μL of silicone oil.
The binding affinity was estimated as described previously (Matulis, D., Kranz, J. K., Salemme, F. R., and Todd, M. J. (2005) Thermodynamic stability of carbonic anhydrase: measurements of binding affinity and stoichiometry using ThermoFluor®. Biochemistry 44, 5258-66) using the following thermodynamic parameters of protein unfolding:
Reference RORγt Tm: 47.8° C.

[3] = HEK-293T, read-out: RORγt (FL) Reporter Assay A or B, % inhibition

human RORγt ligand binding domain (RORγt LBD), sequence (P51449 other isoform, or with tags, fused parts or gaps): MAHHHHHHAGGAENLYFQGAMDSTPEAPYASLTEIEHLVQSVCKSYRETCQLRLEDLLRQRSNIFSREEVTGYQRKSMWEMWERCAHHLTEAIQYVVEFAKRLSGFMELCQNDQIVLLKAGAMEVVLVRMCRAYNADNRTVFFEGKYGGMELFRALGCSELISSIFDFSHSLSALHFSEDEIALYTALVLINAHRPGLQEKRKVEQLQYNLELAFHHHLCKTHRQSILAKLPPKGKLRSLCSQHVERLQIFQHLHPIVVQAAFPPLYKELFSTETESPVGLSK
full-length human RORγt (GAL4-DBD-RORγt fusion) in HEK293T cells, sequence (P51449 other isoform, or with tags, fused parts or gaps): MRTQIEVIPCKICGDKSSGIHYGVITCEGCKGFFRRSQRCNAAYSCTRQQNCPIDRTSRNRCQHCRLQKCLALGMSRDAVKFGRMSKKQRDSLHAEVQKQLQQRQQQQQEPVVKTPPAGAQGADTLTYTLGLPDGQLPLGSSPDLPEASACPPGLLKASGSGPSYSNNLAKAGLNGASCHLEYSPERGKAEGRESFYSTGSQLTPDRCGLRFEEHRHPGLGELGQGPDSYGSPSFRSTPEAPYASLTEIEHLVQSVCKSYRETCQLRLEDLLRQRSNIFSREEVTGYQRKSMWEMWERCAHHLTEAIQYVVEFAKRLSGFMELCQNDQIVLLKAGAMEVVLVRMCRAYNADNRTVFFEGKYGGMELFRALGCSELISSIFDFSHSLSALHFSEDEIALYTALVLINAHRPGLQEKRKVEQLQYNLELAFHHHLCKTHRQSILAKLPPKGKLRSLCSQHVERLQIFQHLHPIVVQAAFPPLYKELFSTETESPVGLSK

**Q.** `CCn1nc(C(=O)NC[C@@]2(O)CC[C@H](S(C)(=O)=O)C[C@@H]2O)c(C)c1-c1ccc(CC(C)(C)C(F)(F)F)nc1OC(F)F` (relative stereo) [Example 51, 5-(2-(Difluoromethoxy)-6-(3,3,3-trifluoro-2,2-dimethylpropyl)pyridin-3-yl)-N-(((1S*,2S*,4S*)-1,2-dihydroxy-4-(methylsulfonyl)cyclohexyl)methyl)-1-ethyl-4-methyl-1H-pyrazole-3-carboxamide] was tested. Which IC50 [1] did it give?
**A.** The IC50 was 35 nM.

**Q.** What about the inhibition at 3 µM [1, 3] of the same molecule?
**A.** Its inhibition at 3 µM is 97%.

**Q.** What about the Kd [2] of the same molecule?
**A.** Its Kd is 3.2 nM.

**Q.** `CCn1nc(C(=O)NC[C@H]2CC[C@H](S(C)(=O)=O)CC2)c(Cl)c1-c1cnc(C[C@H](C)C(F)(F)F)cc1OC(F)F` (single isomer, unassigned) [Example 14, 4-Chloro-5-(4-(difluoromethoxy)-6-((S*)-3,3,3-trifluoro-2-methylpropyl)pyridin-3-yl)-1-ethyl-N-(((1r,4S)-4-(methylsulfonyl)cyclohexyl)methyl)-1H-pyrazole-3-carboxamide] was tested. Which IC50 [1] did it give?
**A.** Its IC50 is 36 nM.

**Q.** What about the inhibition at 3 µM [1, 3] of the same molecule?
**A.** The inhibition at 3 µM was 82%.

**Q.** What about the Kd [2] of the same molecule?
**A.** The Kd was 3.6 nM.

**Q.** How did the IC50 [1] turn out when `CCn1nc(C(=O)NC[C@]2(O)CC[C@@H](S(C)(=O)=O)CC2)c(Cl)c1-c1cnc(C[C@H](C)C(F)(F)F)cc1OC(F)F` (single isomer, unassigned) [Example 15, 4-Chloro-5-(4-(difluoromethoxy)-6-((S*)-3,3,3-trifluoro-2-methylpropyl)pyridin-3-yl)-1-ethyl-N-(((1s,4R)-1-hydroxy-4-(methylsulfonyl)cyclohexyl)methyl)-1H-pyrazole-3-carboxamide] was run?
**A.** Its IC50 is 98 nM.

**Q.** And the inhibition at 3 µM [1, 3]?
**A.** The inhibition at 3 µM was 71%.

**Q.** What about the Kd [2] of the same molecule?
**A.** The Kd was 12 nM.

**Q.** For `CCn1nc(C(=O)NC[C@H]2CC[C@H](S(C)(=O)=O)CC2)c(C)c1-c1cnc(C[C@H](C)C(F)(F)F)cc1OC(F)F` (single isomer, unassigned) [Example 16, 5-(4-(Difluoromethoxy)-6-((S*)-3,3,3-trifluoro-2-methylpropyl)pyridin-3-yl)-1-ethyl-4-methyl-N-(((1r,4S)-4-(methylsulfonyl)cyclohexyl)methyl)-1H-pyrazole-3-carboxamide], which IC50 [1] is on record?
**A.** The IC50 was 16 nM.

**Q.** What about the inhibition at 3 µM [1, 3] of the same molecule?
**A.** Its inhibition at 3 µM is 101%.

**Q.** And the Kd [2]?
**A.** Its Kd is 5.2 nM.

**Q.** Which results are given for `CCn1nc(C(=O)NC[C@H]2CC[C@H](S(C)(=O)=O)CC2)c(Cl)c1-c1cnc(C[C@@H](C)C(F)(F)F)cc1OC(F)F` (single isomer, unassigned) [Example 17, 4-Chloro-5-(4-(difluoromethoxy)-6-((R*)-3,3,3-trifluoro-2-methylpropyl)pyridin-3-yl)-1-ethyl-N-(((1r,4R)-4-(methylsulfonyl)cyclohexyl)methyl)-1H-pyrazole-3-carboxamide]?
**A.** IC50 [1]: 34 nM; inhibition at 3 µM [1, 3]: 125%; Kd [2]: 4.1 nM

**Q.** Which IC50 [1] does the source give for `CCn1nc(C(=O)NC[C@]2(O)CC[C@@H](S(C)(=O)=O)CC2)c(Cl)c1-c1cnc(C[C@@H](C)C(F)(F)F)cc1OC(F)F` (single isomer, unassigned) [Example 18, 4-Chloro-5-(4-(difluoromethoxy)-6-((R*)-3,3,3-trifluoro-2-methylpropyl)pyridin-3-yl)-1-ethyl-N-(((1s,4S)-1-hydroxy-4-(methylsulfonyl)cyclohexyl)methyl)-1H-pyrazole-3-carboxamide] here?
**A.** The IC50 was 140 nM.

**Q.** And the inhibition at 3 µM [1, 3]?
**A.** Its inhibition at 3 µM is 100%.

**Q.** And the Kd [2]?
**A.** Its Kd is 18 nM.

**Q.** `CCn1nc(C(=O)NC[C@H]2CC[C@H](S(C)(=O)=O)CC2)c(C)c1-c1cnc(C[C@@H](C)C(F)(F)F)cc1OC(F)F` (single isomer, unassigned) [Example 19, 5-(4-(Difluoromethoxy)-6-((R*)-3,3,3-trifluoro-2-methylpropyl)pyridin-3-yl)-1-ethyl-4-methyl-N-(((1r,4R)-4-(methylsulfonyl)cyclohexyl)methyl)-1H-pyrazole-3-carboxamide] was tested. Which IC50 [1] did it give?
**A.** The IC50 was 40 nM.

**Q.** And the inhibition at 3 µM [1, 3]?
**A.** The inhibition at 3 µM was 105%.

**Q.** What about the Kd [2] of the same molecule?
**A.** The Kd was 17 nM.

**Q.** For `CCn1nc(C(=O)NC[C@]2(O)CC[C@@H](S(C)(=O)=O)CC2)c(C)c1-c1cnc(C[C@@H](C)C(F)(F)F)cc1OC(F)F` (single isomer, unassigned) [Example 20, 5-(4-(Difluoromethoxy)-6-((R*)-3,3,3-trifluoro-2-methylpropyl)pyridin-3-yl)-1-ethyl-N-(((1s,4S)-1-hydroxy-4-(methylsulfonyl)cyclohexyl)methyl)-4-methyl-1H-pyrazole-3-carboxamide], which IC50 [1] is on record?
**A.** Its IC50 is 99 nM.

**Q.** What about the inhibition at 3 µM [1, 3] of the same molecule?
**A.** Its inhibition at 3 µM is 123%.

**Q.** What about the Kd [2] of the same molecule?
**A.** Its Kd is 34 nM.

**Q.** Which results are given for `CCn1nc(C(=O)NC[C@H]2CC[C@H](S(C)(=O)=O)CC2)c(Cl)c1-c1cnc(C[C@@H](C)C(F)(F)F)cc1OC` (single isomer, unassigned) [Example 61, 4-Chloro-1-ethyl-5-(4-methoxy-6-((R*)-3,3,3-trifluoro-2-methylpropyl)pyridin-3-yl)-N-((1r,4r)-4-(methylsulfonyl)cyclohexyl)methyl)-1H-pyrazole-3-carboxamide]?
**A.** IC50 [1]: 110 nM; inhibition at 2 µM ([1]; HEK-293T, 2 μM compound concentration, read-out: RORγt (FL) Reporter Assay A or B, % inhibition): 87%; Kd [2]: 16 nM

**Q.** How did the IC50 [1] turn out when `CCn1nc(C(=O)NC[C@]2(O)CC[C@@H](S(C)(=O)=O)C[C@H]2O)c(Cl)c1-c1cnc(CC(C)(C)C(F)(F)F)cc1OC(F)F` (stereo in doubt) [Example 3, 4-Chloro-5-(4-(difluoromethoxy)-6-(3,3,3-trifluoro-2,2-dimethylpropyl)pyridin-3-yl)-N-(((1R*,2R*,4R*)-1,2-dihydroxy-4-(methylsulfonyl)cyclohexyl)methyl)-1-ethyl-1H-pyrazole-3-carboxamide] was run?
**A.** The IC50 was 63 nM.

**Q.** And the inhibition at 3 µM [1, 3]?
**A.** Its inhibition at 3 µM is 105%.

**Q.** What about the Kd [2] of the same molecule?
**A.** Its Kd is 8.1 nM.

**Q.** Which IC50 [1] does the source give for `CCn1nc(C(=O)NC[C@@]2(O)CC[C@H](S(C)(=O)=O)C[C@@H]2O)c(Cl)c1-c1cnc(CC(C)(C)C(F)(F)F)cc1OC(F)F` (stereo in doubt) [Example 4, 4-Chloro-5-(4-(difluoromethoxy)-6-(3,3,3-trifluoro-2,2-dimethylpropyl)pyridin-3-yl)-N-(((1S*,2S*,4S*)-1,2-dihydroxy-4-(methylsulfonyl)cyclohexyl)methyl)-1-ethyl-1H-pyrazole-3-carboxamide] here?
**A.** Its IC50 is 55 nM.

**Q.** What about the inhibition at 3 µM [1, 3] of the same molecule?
**A.** Its inhibition at 3 µM is 100%.

**Q.** What about the Kd [2] of the same molecule?
**A.** The Kd was 9.1 nM.
